The source of these data is publication PMC4669685, “Peptides derived from the dependence receptor ALK are proapoptotic for ALK-positive tumors” (Cell Death & Disease, 2015).

Common to all, as to assay type: cell-based, human
Series [1] relates to Cost ALCL cells (NPM–ALK). Nature of the series: Cell viability assay (CellTiterGlo, ATP content). As to conditions: increasing doses, 48 h. As for the experimental part:
(§1) At the end of incubation, cell viability was assessed by measuring the ATP content of wells using the luminescence-based CellTiterGlo assay (Promega) with a Berthold Mithras (http://www.berthold.com) plate reader. Each culture condition was assayed in triplicate.
For orientation: Cellular ATP, detected with luciferase, serves as a proxy for viable cell number.

In series [2] the test system is SH-SY5Y neuroblastoma cells (ALK-F1174L). Nature of the series: Cell viability assay (CellTiterGlo, ATP content). As to conditions: increasing doses, 48 h. As for the experimental part:
as §1

Series [3] deals with caspase 3 in Cost cells. Put plainly: Western blot of caspase 3 cleavage. Conditions: Cost cells treated 6 h; P36 10 μM, doxorubicin 2 μM; compared with culture medium. Background: A western blot detects proteins with antibodies after separation by electrophoresis.
Experimental: Cells were washed once with PBS, pelleted, and extracted in RIPA buffer (150 mM NaCl, 20 mM Tris-HCl, pH 7.7, 4 mM EDTA, 0.5% Triton X-100) containing 10 μg/ml leupeptin, 2 μg/ml aprotinin, 1 mM 4-2-aminoethyl-benzenesulfonyl fluoride, 1 mM sodium orthovanadate, and 4 mM sodium fluoride for 30 min on ice. Cell extracts were either centrifuged at 10 000 × g for 20 min at 4 °C and the supernatant recovered, or sonicated for better extraction of nuclear proteins. The protein content was quantified using the Bio-Rad (www.biorad.com) Bradford protein assay. For western blotting, total cell proteins were subjected to SDS-polyacrylamide gel electrophoresis (SDS-PAGE) in a 4–12% bis/tris acrylamide (Novex NuPAGE, Invitrogen) gradient gel using the Nupage system with Mops SDS buffer under reducing conditions and transferred for 3 h at 60 V onto a nitrocellulose membrane. The blots were hybridized with the following primary antibodies:
ZAL4 anti-human ALK rabbit monoclonal antibody (1/200, Invitrogen), phospho-ALK (Y1604) (1/1000, #3341, Cell Signaling Technology, www.cellsignal.com) rabbit antiserum, mouse monoclonal anti-caspase 3 (1/200, sc-7148, Santa Cruz Biotechnologies, www.scbt.com), rabbit polyclonal anti-p53 (1/500, #554167, BD Pharmingen, www.bdbiosciences.com) and rabbit polyclonal anti-GAPDH (1/2000, Millipore, www.millipore.com) antibodies. […]

Where a SMILES comes first, the peptide text is derived from it. The star is where a group is joined. Myristoyl = CCCCCCCCCCCCCC(=O)*

Regarding `CCCCCCCCCCCCCC(=O)N[C@@H](CC(=O)O)C(=O)N[C@@H](Cc1ccc(O)cc1)C(=O)N[C@@H](CC(N)=O)C(=O)N1CCC[C@H]1C(=O)N[C@@H](CC(N)=O)C(=O)N[C@@H](Cc1ccc(O)cc1)C(=O)N[C@@H](CS)C(=O)N[C@@H](Cc1ccccc1)C(=O)N[C@@H](C)C(=O)NCC(=O)N[C@@H](CCCCN)C(=O)N[C@H](C(N)=O)[C@@H](C)O` [P12-1] (Myristoyl-DYNPNYCFAGKT-NH2), in series [1], the “effect on cell viability (cytotoxicity)” value is “no effect”. Same read-out and setting: next, `CCCCCCCCCCCCCC(=O)N[C@@H](CO)C(=O)N[C@@H](CO)C(=O)N[C@H](C(=O)N[C@@H](CO)C(=O)N[C@@H](CC(=O)O)C(=O)N[C@@H](CC(C)C)C(=O)N[C@@H](CCCCN)C(=O)N[C@@H](CCC(=O)O)C(=O)N[C@H](C(=O)N1CCC[C@H]1C(=O)N[C@@H](CCCNC(=N)N)C(=O)N[C@@H](CCCCN)C(N)=O)C(C)C)[C@@H](C)CC` [P12-3] (Myristoyl-SSISDLKEVPRK-NH2): “dose-dependent cytotoxicity”; `CCCCCCCCCCCCCC(=O)N[C@@H](CCCCN)C(=O)N[C@@H](CCC(=O)O)C(=O)N[C@H](C(=O)N1CCC[C@H]1C(=O)N[C@@H](CCCNC(=N)N)C(=O)N[C@@H](CCCCN)C(=O)N[C@@H](CC(N)=O)C(=O)N[C@H](C(=O)N[C@H](C(=O)N[C@@H](CC(C)C)C(=O)N[C@H](C(=O)N[C@@H](CCCNC(=N)N)C(N)=O)[C@@H](C)CC)[C@@H](C)O)[C@@H](C)CC)C(C)C` [P12-4] (Myristoyl-KEVPRKNITLIR-NH2): “no effect”; `CCCCCCCCCCCCCC(=O)N[C@@H](CC(N)=O)C(=O)N[C@H](C(=O)N[C@H](C(=O)N[C@@H](CC(C)C)C(=O)N[C@H](C(=O)N[C@@H](CCCNC(=N)N)C(=O)NCC(=O)N[C@@H](CC(C)C)C(=O)NCC(=O)N[C@@H](Cc1c[nH]cn1)C(=O)NCC(=O)N[C@@H](C)C(N)=O)[C@@H](C)CC)[C@@H](C)O)[C@@H](C)CC` [P12-5] (Myristoyl-NITLIRGLGHGA-NH2): “dose-dependent cytotoxicity”. For the compound `CCCCCCCCCCCCCC(=O)N[C@@H](CCC(=O)O)C(=O)NCC(=O)N[C@@H](CC(C)C)C(=O)N[C@@H](CC(C)C)C(=O)N[C@@H](Cc1ccccc1)C(=O)N[C@H](C(=O)N[C@@H](Cc1ccc(O)cc1)C(=O)N[C@@H](Cc1c[nH]cn1)C(=O)N[C@H](C(=O)N[C@H](C(=O)N[C@@H](CCCCN)C(=O)N[C@@H](CCCNC(=N)N)C(=O)N[C@@H](CC(=O)O)C(=O)N[C@@H](Cc1ccc(O)cc1)C(=O)NCC(=O)N[C@@H](CC(N)=O)C(=O)N[C@@H](CC(N)=O)C(=O)N[C@@H](CC(C)C)C(=O)N[C@@H](C)C(=O)N[C@@H](CC(=O)O)C(=O)N[C@@H](CO)C(=O)N[C@H](C(=O)NCC(=O)N1CCC[C@H]1C(=O)NCC(=O)N[C@@H](CC(N)=O)C(=O)N[C@H](C(=O)N[C@@H](CO)C(=O)N[C@@H](C)C(=O)N1CCC[C@H]1C(=O)N[C@@H](CO)C(=O)N[C@H](C(=O)N[C@@H](CS)C(=O)N[C@@H](CCCCN)C(=O)N[C@@H](CCCNC(=N)N)C(=O)N[C@@H](CCCCN)C(N)=O)[C@@H](C)CC)[C@@H](C)O)[C@@H](C)CC)[C@@H](C)O)C(C)C)[C@@H](C)CC` [P36scr] (Myristoyl-EGLLFIYHVTKRDYGNNLADSIGPGNTSAPSICKRK-NH2), the “effect on cell viability (cytotoxicity)” value in series [1] and in series [2] was “failed to affect” each time. With `COc1cccc2c1C(=O)c1c(O)c3c(c(O)c1C2=O)C[C@@](O)(C(=O)CO)C[C@@H]3O[C@H]1C[C@H](N)[C@H](O)[C@H](C)O1` [doxorubicin], the “caspase 3 cleavage (western blot)” value in series [3] is on record as “increased caspase 3 cleavage”.
